US20110151258A1, “PREPARATION OF RANOLAZINE” (DR. REDDY'S LABORATORIES LTD., priority 2008, published 2011)

Legend:
Assay type in all cases: physicochemical
[1] = Specific surface area and span by light scattering (Malvern method); conditions: for Specific surface area: method not stated at the place; for span: particle size distribution span
Excerpt: (§1) In an embodiment, the present application provides a pharmaceutical composition comprising ranolazine having a specific surface area more than about 0.1 m^2/g, or more than about 0.5 m^2/g, or more than about 1 m^2/g, or more than about 2 m^2/g, or more than about 3 m^2/g, or more than about 5 m^2/g. “Specific surface area” as used herein, unless otherwise defined refers to the total particle surface […]. The specific surface area of ranolazine of the present invention may be measured by a BET (Brunauer, Emmett and Teller) specific surface method, such as using a Micromeritics Gemini surface area analyzer, model 2365. Samples for analysis are degassed at 40° C. under reduced pressure and the determination of the adsorption of nitrogen gas at 77° K may be measured for relative pressures in the range of 0.05-0.3. Specific surface area and span of ranolazine of the present application may be measured by using light scattering equipment, such as, for example, a Malvern Master Sizer 2000 (helium neon laser source, ranolazine suspended in light liquid paraffin, size range: 0.01 μm to 3000 μm).

[2] = Particle size distribution by light scattering (Malvern Master Sizer 2000); conditions: for Particle size distribution: D10: 10th volume percentile particle size; for Particle size distribution: D50: 50th volume percentile particle size; for Particle size distribution: D90: 90th volume percentile particle size
Excerpt: Particle size distributions of ranolazine particles may be measured by any technique known in the art. For example, particle size distributions of ranolazine particles may be measured using light scattering equipment, such as, for example, a Malvern Master Sizer 2000 from Malvern Instruments Limited, Malvern, Worcestershire, United Kingdom (helium neon laser source, ranolazine suspended in light liquid paraffin, size range: 0.01 μm to 3000 μm).

[3] = Specific surface area by BET method
Excerpt: as §1

[4] = Bulk density (USP Test 616, method 2)
Excerpt: In an embodiment, the present application provides ranolazine having bulk densities less than about 0.8 g/mL, or less than about 0.5 g/mL, or less than about 0.3 g/mL. Bulk density may be determined using Test 616 “Bulk Density and Tapped Density,” as in United States Pharmacopoeia 29, United States Pharmacopeial Convention, Inc., Rockville, Md., 2005, in method 2.

Row | Compound | Specific surface area [1] | span [1] | Particle size distribution: D10 [2] | Particle size distribution: D50 [2] | Particle size distribution: D90 [2] | Specific surface area by Malvern method [1] | specific surface area by BET method [3] | bulk density after tapping ([4]; after tapping) | bulk density before tapping ([4]; before tapping)
1 | COc1ccccc1OCC(O)CN1CCN(CC(=O)Nc2c(C)cccc2C)CC1 (stereo not shown) [Example 14, Ranolazine] | 0.539 m^2/g | 1.833 | 6.311 μm | 22.490 μm | 47.539 μm | – | – | – | –
2 | COc1ccccc1OCC(O)CN1CCN(CC(=O)Nc2c(C)cccc2C)CC1 (stereo not shown) [Example 15, Ranolazine] | 0.655 m^2/g | 2.813 | 5.272 μm | 18.656 μm | 57.748 μm | – | – | – | –
3 | COc1ccccc1OCC(O)CN1CCN(CC(=O)Nc2c(C)cccc2C)CC1 (stereo not shown) [Example 16, Ranolazine] | – | 1.817 | 5.026 μm | 18.770 μm | 39.137 μm | 1.63 m^2/g | 0.46 m^2/g | – | –
4 | COc1ccccc1OCC(O)CN1CCN(CC(=O)Nc2c(C)cccc2C)CC1 (stereo not shown) [Example 17, Ranolazine] | – | 1.905 | 1.324 μm | 5.140 μm | 11.116 μm | 1.99 m^2/g | 2.54 m^2/g | – | –
5 | COc1ccccc1OCC(O)CN1CCN(CC(=O)Nc2c(C)cccc2C)CC1 (stereo not shown) [Example 18, Ranolazine] | 0.705 m^2/g | 1.611 | 4.420 μm | 16.147 μm | 30.439 μm | – | – | 0.477 g/mL | 0.353 g/mL
6 | COc1ccccc1OCC(O)CN1CCN(CC(=O)Nc2c(C)cccc2C)CC1 (stereo not shown) [Example 19, Ranolazine] | 0.291 m^2/g | 1.823 | 13.262 μm | 41.574 μm | 89.060 μm | – | – | – | –
